Measured values as given in the supplement of paper PMC6045584.
± gives the standard deviation of the averaged measurements.

How the values were obtained:
GEFITINIB = compound: COc1cc2ncnc(Nc3ccc(F)c(Cl)c3)c2cc1OCCCN1CCOCC1 [GEFITINIB]; test: surviving fraction relative to DMSO-only wells; higher = less growth inhibition; details: exposure time: 5 days
Outline: (§1)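 For each tumour cell line, log-phase cells were put into 384-well plates at 250–500 cells per well, then after 24 hours exposed continuously for five days to inhibitors at 0.5, 1, 5, 10, 50, 100, 500 and 1000 nM. Viability was assessed by CellTiter-Glo luminescence, with surviving fraction expressed relative to the median of DMSO-only wells. Lines were screened three times and retained only if replicate Pearson r exceeded 0.7 and median Z' exceeded 0.3.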

YM155 = compound: COCC[n+]1c2c(n(Cc3cnccn3)c1C)C(=O)c1ccccc1C2=O [YM155]; test: as above; details: exposure time: 5 days
Outline: as §1

Test System | surviving fraction (GEFITINIB; 0.5 nM) | surviving fraction (GEFITINIB; 1 nM) | surviving fraction (GEFITINIB; 5 nM) | surviving fraction (GEFITINIB; 10 nM) | surviving fraction (GEFITINIB; 50 nM) | surviving fraction (GEFITINIB; 100 nM) | surviving fraction (GEFITINIB; 500 nM) | surviving fraction (GEFITINIB; 1000 nM) | surviving fraction (YM155; 0.5 nM) | surviving fraction (YM155; 1 nM) | surviving fraction (YM155; 5 nM) | surviving fraction (YM155; 10 nM) | surviving fraction (YM155; 50 nM) | surviving fraction (YM155; 100 nM) | surviving fraction (YM155; 500 nM) | surviving fraction (YM155; 1000 nM)
SJSA1 BONE | 1.15 ± 0.059 | 1.59 ± 0.071 | 1.62 ± 0.018 | 0.602 ± 0.04 | 1.8 ± 0.065 | 1.67 ± 0.033 | 1.68 ± 0.052 | 1.68 ± 0.018 | 1 ± 0.059 | 1.6 ± 0.045 | 1.46 ± 0.018 | 1.59 ± 0.028 | 1.7 ± 0.11 | 1.7 ± 0.074 | 1.6 ± 0.15 | 1.53 ± 0.16
T47D BREAST | 1.08 ± 0.027 | 1.05 ± 0.064 | 1.07 ± 0.061 | 1.03 ± 0.029 | 1.13 ± 0.015 | 1.083 ± 0.01 | 1.065 ± 0.0084 | 1.06 ± 0.021 | 0.959 ± 0.013 | 0.983 ± 0.027 | 0.917 ± 0.035 | 0.763 ± 0.0085 | 0.212 ± 0.01 | 0.131 ± 0.01 | 0.0481 ± 0.0042 | 0.0483 ± 0.0017
HCC1806 BREAST | 1.02 ± 0.11 | 1.08 ± 0.11 | 1.19 ± 0.1 | 1.2 ± 0.11 | 1.04 ± 0.14 | 0.925 ± 0.098 | 0.62 ± 0.069 | 0.61 ± 0.01 | 1.04 ± 0.077 | 1.08 ± 0.15 | 0.308 ± 0.016 | 0.284 ± 0.01 | 0.064 ± 0.0027 | 0.05 ± 0.0044 | 0.024 | 0.0257 ± 0.0015
NOS1 BONE | 1.1 ± 0.073 | 1.11 ± 0.032 | 1.25 ± 0.23 | 1.22 ± 0.29 | 1.17 ± 0.085 | 1.11 ± 0.046 | 0.871 ± 0.048 | 0.754 ± 0.031 | 1.4 ± 0.44 | 1.03 ± 0.084 | 0.316 ± 0.034 | 0.17 ± 0.025 | 0.0643 ± 0.0076 | 0.048 ± 0.0062 | 0.0337 ± 0.0058 | 0.0323 ± 0.0025
SCC36 HEADNECK | 1.08 ± 0.091 | 1.02 ± 0.023 | 1.13 ± 0.057 | 0.972 ± 0.057 | 0.735 ± 0.11 | 0.643 ± 0.1 | 0.45 ± 0.03 | 0.397 ± 0.05 | 1.01 ± 0.035 | 1.02 ± 0.042 | 1.06 ± 0.14 | 0.817 ± 0.07 | 0.261 ± 0.056 | 0.105 ± 0.0036 | 0.04 ± 0.0056 | 0.0387 ± 0.0015
SUM44 BREAST | 1.27 ± 0.43 | – | 1.2 ± 0.32 | 1.19 ± 0.23 | 1.45 ± 0.42 | 1.33 ± 0.32 | 1.33 ± 0.49 | 1.14 ± 0.22 | 1.05 ± 0.16 | 1.15 ± 0.24 | 1.1 ± 0.2 | 1 ± 0.27 | 0.358 ± 0.12 | 0.225 ± 0.055 | 0.121 ± 0.049 | 0.125 ± 0.064
OSHN BONE | 1.1 ± 0.012 | 1.11 ± 0.017 | 1.12 ± 0.013 | 1.13 ± 0.026 | 1.15 ± 0.0076 | 1.15 ± 0.024 | 1.142 ± 0.0066 | 1.11 ± 0.021 | 1.02 ± 0.021 | 1.05 ± 0.019 | 0.265 ± 0.013 | 0.097 ± 0.008 | 0.0293 ± 0.0011 | 0.025 ± 0.001 | 0.0203 ± 0.00058 | 0.027 ± 0.0017
S68 BREAST | 0.936 ± 0.095 | 0.744 ± 0.17 | 1.11 ± 0.34 | 1.09 ± 0.069 | 1.11 ± 0.23 | 0.762 ± 0.093 | 0.728 ± 0.1 | 0.687 ± 0.22 | 0.884 ± 0.076 | 1.1 ± 0.45 | 0.674 ± 0.092 | 0.586 ± 0.038 | 0.143 ± 0.016 | 0.0627 ± 0.0061 | 0.0267 ± 0.00058 | 0.0277 ± 0.0015
HELA CERVIX | 1.07 ± 0.044 | 1.05 ± 0.019 | 1.106 ± 0.0031 | 1.06 ± 0.033 | 1.15 ± 0.029 | 1.14 ± 0.022 | 1.18 ± 0.065 | 1.14 ± 0.058 | 0.9905 ± 0.0069 | 0.966 ± 0.06 | 0.487 ± 0.0092 | 0.23 ± 0.0095 | 0.0242 ± 0.00076 | 0.021 ± 0.0013 | 0.0187 ± 0.00058 | 0.0228 ± 0.00076
CCK81 LARGE INTESTINE | 0.85 ± 0.091 | 0.849 ± 0.081 | 0.77 ± 0.12 | 0.72 ± 0.06 | 0.628 ± 0.091 | 0.325 ± 0.12 | 0.0823 ± 0.018 | 0.076 ± 0.012 | 0.854 ± 0.1 | 0.82 ± 0.03 | 0.735 ± 0.076 | 0.745 ± 0.021 | 0.674 ± 0.022 | 0.798 ± 0.073 | 0.719 ± 0.036 | 0.801 ± 0.13
